*1 amine or outer side, *2 acyl side, *3 side chain or, on linkers, in order; H or OH if unused. Where a SMILES comes first, the peptide text is derived from it. Side-chain parts run from the residue outwards. [ ]: non-standard residue; d: D form. The star is where a group is joined. Isobutyryl(2-(3-CN-5-F-Ph)) = CC(C)(C(=O)*)c1cc(F)cc(C#N)c1; Cyclopropanecarbonyl(1-Ph) = O=C(C1(c2ccccc2)CC1)*; C20 diacid = O=C(O)CCCCCCCCCCCCCCCCCCC(=O)*; γGlu = O=C(O)[C@H](CCC(=O)[*:2])N[*:1]; NMeβAla = CN(CCC(=O)[*:2])[*:1]; X61 = CC(C)(C(=O)*)c1ccccc1F; AEEA = NCCOCCOCC(=O)O; Aib = CC(C)(N)C(=O)O; Piv = CC(C)(C)C(=O)*; GABA = NCCCC(=O)O; βAla = NCCC(=O)O
Legend:
Type in all cases: cell-based
GLP-1 receptor [1] = biological target: T1, GLP-1 receptor (Homo sapiens, UniProt P43220); test: HitHunter cAMP assay, GLP-1 receptor; details: for EC50: CHO cells stably expressing human GLP-1 receptor, cAMP accumulation, 30 min, read-out: EC50 GLP-1R; for Emax: CHO cells, cAMP, normalized to maximum signal from GLP-1 (high) and DMSO (low), read-out: Emax GLP-1R
GIP receptor [2] = biological target: T2, GIP receptor (Homo sapiens, UniProt P48546); test: HitHunter cAMP assay, GIP receptor; details: for EC50: CHO cells stably expressing GIP receptor, cAMP accumulation, 30 min, read-out: EC50 GIP-1R; for Emax: CHO cells, cAMP, normalized to maximum signal from GIP (high) and DMSO (low), read-out: Emax GIP-1R
T2 sequence (P48546 22-466): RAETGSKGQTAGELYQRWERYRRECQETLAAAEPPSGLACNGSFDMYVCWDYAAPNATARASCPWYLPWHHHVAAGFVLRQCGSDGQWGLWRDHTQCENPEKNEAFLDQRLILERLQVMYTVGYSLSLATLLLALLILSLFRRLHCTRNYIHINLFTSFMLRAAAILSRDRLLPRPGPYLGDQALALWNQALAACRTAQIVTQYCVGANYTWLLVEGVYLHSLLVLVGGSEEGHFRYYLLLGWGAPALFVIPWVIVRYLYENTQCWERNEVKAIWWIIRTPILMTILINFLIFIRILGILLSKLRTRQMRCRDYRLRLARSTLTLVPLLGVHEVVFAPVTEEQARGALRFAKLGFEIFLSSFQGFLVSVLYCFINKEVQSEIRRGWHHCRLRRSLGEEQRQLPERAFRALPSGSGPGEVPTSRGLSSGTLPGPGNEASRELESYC

GIP receptor [3] = biological target: T2, GIP receptor; test: PathHunter β-arrestin assay, GIP receptor; design: host or cells: PathHunter CHO-K1 GIPR β-Arrestin Cell Line; details: β-arrestin-2 recruitment, PathHunter CHO-K1 GIPR β-Arrestin Cell Line, 90 min at 37° C.; normalized to GIP; read-out: GIPR β Arrestin EC50
GLP-1 receptor [4] = biological target: T1, GLP-1 receptor; test: PathHunter β-arrestin assay, GLP-1 receptor; design: host or cells: PathHunter CHO-K1 GLP1R β-Arrestin Cell Line; details: β-arrestin-2 recruitment, PathHunter CHO-K1 GLP1R β-Arrestin Cell Line, 90 min at 37° C.; normalized to GLP-1; read-out: GLP-1R β Arrestin EC50

T1 sequence (P43220 24-463): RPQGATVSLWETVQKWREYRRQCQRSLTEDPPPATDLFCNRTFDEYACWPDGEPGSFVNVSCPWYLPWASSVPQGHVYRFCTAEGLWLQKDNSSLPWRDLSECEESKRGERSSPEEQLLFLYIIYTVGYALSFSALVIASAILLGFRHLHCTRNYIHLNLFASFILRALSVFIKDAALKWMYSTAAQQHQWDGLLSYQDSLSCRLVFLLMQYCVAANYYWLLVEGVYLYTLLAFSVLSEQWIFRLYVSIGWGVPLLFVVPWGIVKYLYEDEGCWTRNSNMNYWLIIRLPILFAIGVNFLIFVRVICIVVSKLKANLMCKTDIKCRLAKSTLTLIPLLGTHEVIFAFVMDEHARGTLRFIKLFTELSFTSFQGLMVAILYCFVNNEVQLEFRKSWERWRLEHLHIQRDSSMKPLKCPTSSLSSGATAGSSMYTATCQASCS

Compound | EC50 (GLP-1 receptor [1]) | Emax (GLP-1 receptor [1]) | EC50 (GIP receptor [2]) | Emax (GIP receptor [2]) | EC50 (GIP receptor [3]) | EC50 (GLP-1 receptor [4])
CC[C@H](C)[C@H](NC(=O)[C@H](CC(C)C)NC(=O)[C@H](Cc1c[nH]c2ccccc12)NC(=O)[C@H](CCC(N)=O)NC(=O)[C@@H](NC(=O)[C@H](Cc1ccccc1)NC(=O)[C@H](C)NC(=O)[C@H](CCCCNC(=O)COCCOCCNC(=O)COCCOCCNC(=O)CC[C@H](NC(=O)CCCCCCCCCCCCCCCCCCC(=O)O)C(=O)O)NC(=O)[C@H](CCC(N)=O)NC(=O)[C@H](C)NC(=O)[C@@H](NC(=O)[C@H](CCCCN)NC(=O)[C@H](CC(=O)O)NC(=O)[C@H](CC(C)C)NC(=O)C(C)(C)NC(=O)[C@@H](NC(=O)[C@H](CO)NC(=O)[C@H](Cc1ccc(O)cc1)NC(=O)[C@H](CC(=O)O)NC(=O)[C@H](CO)NC(=O)[C@@H](NC(=O)[C@H](Cc1ccccc1)NC(=O)[C@@H](NC(=O)CNC(=O)[C@H](CCC(=O)O)NC(=O)CCNC(=O)C(C)(C)C)[C@@H](C)O)[C@@H](C)O)[C@@H](C)CC)[C@@H](C)CC)C(C)C)C(=O)N[C@@H](C)C(=O)NCC(=O)NCC(=O)N1CCC[C@H]1C(=O)N[C@@H](CO)C(=O)N[C@@H](CO)C(=O)NCC(=O)N[C@@H](C)C(=O)N1CCC[C@H]1C(=O)N1CCC[C@H]1C(=O)N1CCC[C@H]1C(=O)N[C@@H](CO)C(N)=O [Compound 197] ({Piv-βAla}-EGTFTSDYSI[Aib]LDKIAQK([AEEA-AEEA-γGlu-C20 diacid])AFVQWLIAGGPSSGAPPPS-NH2) | 0.1 to 1 nM | 96% | 10 to 100 nM | 97% | > 1000 nM | > 1000 nM
CC[C@H](C)[C@H](NC(=O)[C@H](CC(C)C)NC(=O)[C@H](Cc1c[nH]c2ccccc12)NC(=O)[C@H](CCC(N)=O)NC(=O)[C@@H](NC(=O)[C@H](Cc1ccccc1)NC(=O)[C@H](C)NC(=O)[C@H](CCCCNC(=O)COCCOCCNC(=O)COCCOCCNC(=O)CC[C@H](NC(=O)CCCCCCCCCCCCCCCCCCC(=O)O)C(=O)O)NC(=O)[C@H](CCC(N)=O)NC(=O)[C@H](C)NC(=O)[C@@H](NC(=O)[C@H](CCCCN)NC(=O)[C@H](CC(=O)O)NC(=O)[C@H](CC(C)C)NC(=O)C(C)(C)NC(=O)[C@@H](NC(=O)[C@H](CO)NC(=O)[C@H](Cc1ccc(O)cc1)NC(=O)[C@H](CC(=O)O)NC(=O)[C@H](CO)NC(=O)[C@@H](NC(=O)[C@H](Cc1ccccc1)NC(=O)[C@@H](NC(=O)CNC(=O)[C@H](CCC(=O)O)NC(=O)CCNC(=O)C(C)(C)c1ccccc1F)[C@@H](C)O)[C@@H](C)O)[C@@H](C)CC)[C@@H](C)CC)C(C)C)C(=O)N[C@@H](C)C(=O)NCC(=O)NCC(=O)N1CCC[C@H]1C(=O)N[C@@H](CO)C(=O)N[C@@H](CO)C(=O)NCC(=O)N[C@@H](C)C(=O)N1CCC[C@H]1C(=O)N1CCC[C@H]1C(=O)N1CCC[C@H]1C(=O)N[C@@H](CO)C(N)=O [Compound 198] ({X61-βAla}-EGTFTSDYSI[Aib]LDKIAQK([AEEA-AEEA-γGlu-C20 diacid])AFVQWLIAGGPSSGAPPPS-NH2) | 0.1 to 1 nM | 99% | 1 to 10 nM | 102% | < 1000 nM | > 1000 nM
CC[C@H](C)[C@H](NC(=O)[C@H](CC(C)C)NC(=O)[C@H](Cc1c[nH]c2ccccc12)NC(=O)[C@H](CCC(N)=O)NC(=O)[C@@H](NC(=O)[C@H](Cc1ccccc1)NC(=O)[C@H](C)NC(=O)[C@H](CCCCNC(=O)COCCOCCNC(=O)COCCOCCNC(=O)CC[C@H](NC(=O)CCCCCCCCCCCCCCCCCCC(=O)O)C(=O)O)NC(=O)[C@H](CCC(N)=O)NC(=O)[C@H](C)NC(=O)[C@@H](NC(=O)[C@H](CCCCN)NC(=O)[C@H](CC(=O)O)NC(=O)[C@H](CC(C)C)NC(=O)C(C)(C)NC(=O)[C@@H](NC(=O)[C@H](CO)NC(=O)[C@H](Cc1ccc(O)cc1)NC(=O)[C@H](CC(=O)O)NC(=O)[C@H](CO)NC(=O)[C@@H](NC(=O)[C@H](Cc1ccccc1)NC(=O)[C@@H](NC(=O)CNC(=O)[C@H](CCC(=O)O)NC(=O)CCNC(=O)C1(c2ccccc2)CC1)[C@@H](C)O)[C@@H](C)O)[C@@H](C)CC)[C@@H](C)CC)C(C)C)C(=O)N[C@@H](C)C(=O)NCC(=O)NCC(=O)N1CCC[C@H]1C(=O)N[C@@H](CO)C(=O)N[C@@H](CO)C(=O)NCC(=O)N[C@@H](C)C(=O)N1CCC[C@H]1C(=O)N1CCC[C@H]1C(=O)N1CCC[C@H]1C(=O)N[C@@H](CO)C(N)=O [Compound 199] ({Cyclopropanecarbonyl(1-Ph)-βAla}-EGTFTSDYSI[Aib]LDKIAQK([AEEA-AEEA-γGlu-C20 diacid])AFVQWLIAGGPSSGAPPPS-NH2) | 1 to 10 nM | 100% | 10 to 100 nM | 102% | > 1000 nM | > 1000 nM
CC[C@H](C)[C@H](NC(=O)[C@H](CC(C)C)NC(=O)[C@H](Cc1c[nH]c2ccccc12)NC(=O)[C@H](CCC(N)=O)NC(=O)[C@@H](NC(=O)[C@H](Cc1ccccc1)NC(=O)[C@H](C)NC(=O)[C@H](CCCCNC(=O)COCCOCCNC(=O)COCCOCCNC(=O)CC[C@H](NC(=O)CCCCCCCCCCCCCCCCCCC(=O)O)C(=O)O)NC(=O)[C@H](CCC(N)=O)NC(=O)[C@H](C)NC(=O)[C@@H](NC(=O)[C@H](CCCCN)NC(=O)[C@H](CC(=O)O)NC(=O)[C@H](CC(C)C)NC(=O)C(C)(C)NC(=O)[C@@H](NC(=O)[C@H](CO)NC(=O)[C@H](Cc1ccc(O)cc1)NC(=O)[C@H](CC(=O)O)NC(=O)[C@H](CO)NC(=O)[C@@H](NC(=O)[C@H](Cc1ccccc1)NC(=O)[C@@H](NC(=O)CNC(=O)[C@H](CCC(=O)O)NC(=O)CCCNC(=O)C(C)(C)c1cc(F)cc(C#N)c1)[C@@H](C)O)[C@@H](C)O)[C@@H](C)CC)[C@@H](C)CC)C(C)C)C(=O)N[C@@H](C)C(=O)NCC(=O)NCC(=O)N1CCC[C@H]1C(=O)N[C@@H](CO)C(=O)N[C@@H](CO)C(=O)NCC(=O)N[C@@H](C)C(=O)N1CCC[C@H]1C(=O)N1CCC[C@H]1C(=O)N1CCC[C@H]1C(=O)N[C@@H](CO)C(N)=O [Compound 200] ({Isobutyryl(2-(3-CN-5-F-Ph))-GABA}-EGTFTSDYSI[Aib]LDKIAQK([AEEA-AEEA-γGlu-C20 diacid])AFVQWLIAGGPSSGAPPPS-NH2) | 0.1 to 1 nM | 104% | 10 to 100 nM | 102% | > 1000 nM | > 1000 nM
CC[C@H](C)[C@H](NC(=O)[C@H](CC(C)C)NC(=O)[C@H](Cc1c[nH]c2ccccc12)NC(=O)[C@H](CCC(N)=O)NC(=O)[C@@H](NC(=O)[C@H](Cc1ccccc1)NC(=O)[C@H](C)NC(=O)[C@H](CCCCNC(=O)COCCOCCNC(=O)COCCOCCNC(=O)CC[C@H](NC(=O)CCCCCCCCCCCCCCCCCCC(=O)O)C(=O)O)NC(=O)[C@H](CCC(N)=O)NC(=O)[C@H](C)NC(=O)[C@@H](NC(=O)[C@H](CCCCN)NC(=O)[C@H](CC(=O)O)NC(=O)[C@H](CC(C)C)NC(=O)C(C)(C)NC(=O)[C@@H](NC(=O)[C@H](CO)NC(=O)[C@H](Cc1ccc(O)cc1)NC(=O)[C@H](CC(=O)O)NC(=O)[C@H](CO)NC(=O)[C@@H](NC(=O)[C@H](Cc1ccccc1)NC(=O)[C@@H](NC(=O)CNC(=O)[C@H](CCC(=O)O)NC(=O)CCN(C)C(=O)C(C)(C)c1cc(F)cc(C#N)c1)[C@@H](C)O)[C@@H](C)O)[C@@H](C)CC)[C@@H](C)CC)C(C)C)C(=O)N[C@@H](C)C(=O)NCC(=O)NCC(=O)N1CCC[C@H]1C(=O)N[C@@H](CO)C(=O)N[C@@H](CO)C(=O)NCC(=O)N[C@@H](C)C(=O)N1CCC[C@H]1C(=O)N1CCC[C@H]1C(=O)N1CCC[C@H]1C(=O)N[C@@H](CO)C(N)=O [Compound 201] ({Isobutyryl(2-(3-CN-5-F-Ph))}-[NMeβAla]EGTFTSDYSI[Aib]LDKIAQK([AEEA-AEEA-γGlu-C20 diacid])AFVQWLIAGGPSSGAPPPS-NH2) | 10 to 100 nM | 108% | 100 to 1000 nM | 107% | > 1000 nM | > 1000 nM
